According to US20230365537A1, “POLO LIKE KINASE 4 INHIBITORS” (ORIC Pharmaceuticals, Inc., priority 2021, published 2023):

Columns and labels:
[1] = target: human recombinant Aurora A (Homo sapiens (Human), UniProt O14965); assay: Aurora A Kinase Biochemical Assay (ADP-Glo); details: ratio of Aurora A IC50 to PLK4 IC50 (selectivity)
human recombinant PLK4 = human recombinant PLK4 (Homo sapiens (Human), UniProt O00444); assay: PLK4 Biochemical Assay (ADP-Glo); details: 0.5 nM PLK4, 8.0 µM ATP, 4.7 µM MBP, 6 hours at RT
In short: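 Recombinant human PLK4 (added at 1.0 nM) was preincubated 15 min at RT with compound in 50 mM HEPES pH 7.5, 10 mM MgCl2, 1 mM EGTA, 1 mM DTT, 0.01% Brij-35, 0.01% BSA. ADP formed was detected by ADP-Glo luminescence (40 min ATP depletion, 30 min detection). IC50 came from a four-parameter fit.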

[2] = target: human recombinant Aurora B (Homo sapiens (Human), UniProt Q96GD4); assay: Aurora B Kinase Biochemical Assay (ADP-Glo); details: ratio of Aurora B IC50 to PLK4 IC50 (selectivity)
In short: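 Recombinant human Aurora B (20 nM in pH 7.5 HEPES buffer with MgCl2, EGTA, DTT, Brij-35, BSA) preincubated with compound 15 min at RT. ADP formed quantified by ADP-Glo luminescence after ATP depletion (40 min) and detection (30 min). IC50 from four-parameter non-linear regression.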

Chain of human recombinant Aurora A (O14965 whole entry): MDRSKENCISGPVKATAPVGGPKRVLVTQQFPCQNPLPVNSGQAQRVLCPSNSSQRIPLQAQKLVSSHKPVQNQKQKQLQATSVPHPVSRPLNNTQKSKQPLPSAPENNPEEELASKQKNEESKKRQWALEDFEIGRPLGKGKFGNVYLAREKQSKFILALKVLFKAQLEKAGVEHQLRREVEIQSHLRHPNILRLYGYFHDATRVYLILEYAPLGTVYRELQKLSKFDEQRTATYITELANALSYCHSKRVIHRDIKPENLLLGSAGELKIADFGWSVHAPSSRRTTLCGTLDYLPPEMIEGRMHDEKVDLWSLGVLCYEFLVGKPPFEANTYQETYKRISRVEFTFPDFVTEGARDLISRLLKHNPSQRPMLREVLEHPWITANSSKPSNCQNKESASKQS
Chain of human recombinant Aurora B (Q96GD4 whole entry): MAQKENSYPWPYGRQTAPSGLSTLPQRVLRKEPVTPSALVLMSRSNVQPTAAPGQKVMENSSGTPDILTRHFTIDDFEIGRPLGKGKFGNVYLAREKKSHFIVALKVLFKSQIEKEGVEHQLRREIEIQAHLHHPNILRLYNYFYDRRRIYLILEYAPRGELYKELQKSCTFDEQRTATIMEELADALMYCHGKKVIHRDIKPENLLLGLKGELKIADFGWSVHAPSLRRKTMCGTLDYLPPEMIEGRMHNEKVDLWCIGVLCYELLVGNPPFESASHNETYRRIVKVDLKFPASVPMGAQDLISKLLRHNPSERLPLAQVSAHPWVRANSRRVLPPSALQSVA
Chain of human recombinant PLK4 (O00444 whole entry): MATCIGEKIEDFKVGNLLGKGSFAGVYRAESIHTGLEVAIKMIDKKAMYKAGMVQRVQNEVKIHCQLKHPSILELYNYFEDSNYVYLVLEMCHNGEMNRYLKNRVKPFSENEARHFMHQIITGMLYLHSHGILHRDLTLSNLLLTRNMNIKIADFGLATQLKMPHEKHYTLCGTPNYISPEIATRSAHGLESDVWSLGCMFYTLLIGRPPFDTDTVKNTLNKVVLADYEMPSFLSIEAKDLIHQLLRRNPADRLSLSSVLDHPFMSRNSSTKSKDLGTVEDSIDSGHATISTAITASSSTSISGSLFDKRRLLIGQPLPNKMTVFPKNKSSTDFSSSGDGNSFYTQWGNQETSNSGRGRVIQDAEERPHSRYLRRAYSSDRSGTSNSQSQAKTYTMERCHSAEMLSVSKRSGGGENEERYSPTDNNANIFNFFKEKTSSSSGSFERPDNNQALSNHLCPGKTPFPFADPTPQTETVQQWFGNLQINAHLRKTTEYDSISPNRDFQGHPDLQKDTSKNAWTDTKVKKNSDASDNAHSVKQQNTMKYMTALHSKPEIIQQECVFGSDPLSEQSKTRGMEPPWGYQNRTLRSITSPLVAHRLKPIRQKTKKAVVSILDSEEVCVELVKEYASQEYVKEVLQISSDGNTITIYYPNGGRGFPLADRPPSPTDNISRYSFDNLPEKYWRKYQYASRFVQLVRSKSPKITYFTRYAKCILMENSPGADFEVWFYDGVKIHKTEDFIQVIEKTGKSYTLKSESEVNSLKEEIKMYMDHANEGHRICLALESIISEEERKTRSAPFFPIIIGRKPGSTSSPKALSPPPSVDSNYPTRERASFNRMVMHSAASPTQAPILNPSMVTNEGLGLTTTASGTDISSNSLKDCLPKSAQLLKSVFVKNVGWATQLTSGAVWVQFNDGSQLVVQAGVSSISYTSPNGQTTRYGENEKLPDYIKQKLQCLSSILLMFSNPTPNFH

Compound | [Aurora A IC50 (nM)]/[PLK4 IC50 (nM)] [1] | IC50 (human recombinant PLK4) [nM] | [Aurora B IC50 (nM)]/[PLK4 IC50 (nM)] [2]
COc1ccc2c(c1)[C@]1(C[C@H]1c1ccc3c(Nc4cc(N5CC(O)C5)nc(C(C)C)n4)n[nH]c3c1)C(=O)N2 [Example 111, (1R,2S)-2-(3-{[6-(3-hydroxyazetidin-1-yi)-2-(propan-2,yl)pyrimidin-4-yl]amino}-1H-indazol-6-yl)-5′-inethoxyspiro[cyclopropane-1,3′-indol]-2′(1′H)-one] | 234.7231 | 1.53 | 144.4951
COc1ccc2c(c1)[C@]1(C[C@H]1c1ccc3c(Nc4cc(N5CCS(=O)(=O)CC5)ncn4)n[nH]c3c1)C(=O)N2 [Example 39, (1R,2S)-2-(3-((6-(1,1-dioxidothiomorpholino)pyrimidin-4-yl)amino)-1H-indazol-6-yl)-5′-methoxyspiro[cyclopropane-1,3′-indolin]-2′-one] | 30.38 | 26.4 | 1.018
COc1ccc2c(c1)[C@]1(C[C@H]1c1ccc3c(Nc4cn(CCO)nc4OC)n[nH]c3c1)C(=O)N2 [Example 50, (1R,2S)-2-(3-{[1-(2-hydroxyethyl)-3-methoxy-1H-pyrazol-4-yl]amino}-1H-indazol-6-yl)-S′-methoxyspiro[cyclopropane-1,3′-indol]-2′(1′H)-one] | 361.809 | 61.7 | 27.4923
COc1ccc2c(c1)[C@]1(C[C@H]1c1ccc3c(Nc4cn(C)nc4C(F)(F)F)n[nH]c3c1)C(=O)N2 [Example 64, (1R,2S)-5′-methoxy-2-(3-{[1-methyl-3-(trifluoromethyl)-1H-pyrazol-4-yl]amino)-1H-indazol-6-yl)spiro[cyclopropane-1,3′-indol]-2′(1′H)-one] | 210.2116 | 87 | 98.84
COc1ccc2c(c1)[C@]1(C[C@H]1c1ccc3c(Nc4cccc5c4OCC5)n[nH]c3c1)C(=O)N2 [Example 16, (1R,2S)-2-{3-[(2,3-dihydro-1-benzofuran-7-yl)amino]-1H-indazol-6-yl}-5′-methoxyspiro[cyclopropane-1,3′-indol]-2′(1′H)-one] | 605.6855 | 2.18 | 11.76
COc1ccc2c(c1)[C@]1(C[C@H]1c1ccc3c(Nc4cc(C)nn4C)n[nH]c3c1)C(=O)N2 [Example 74] | 293.0556 | 3.31 | 37.14
COc1ccc2c(c1)[C@]1(C[C@H]1c1ccc3c(Nc4cccc5c4OCC5=O)n[nH]c3c1)C(=O)N2 [Example 31, (1R,2S)-5′-methoxy-2-{3-[(3-oxo-2,3-dihydro-1-benzofuran-7-yl)amino]-1H-indazol-6-yl}spiro[cyclopropane-1,3′-indol]-2′(1′H)-one] | 207.053 | 3.02 | 22.17
COc1ccc2c(c1)[C@]1(C[C@H]1c1ccc3c(Nc4ccc(C#N)nc4OC)n[nH]c3c1)C(=O)N2 [Example 260, 6-methoxy-5-({6-[(1R,2S)-5′-methoxy-2′-oxo-1′,2′-dihydrospiro[cyclopropane-1,3′-indol]-2-yl]-1H-indazol-3-yl}amino)pyridine-2-carbonitrile] | 1330.5457 | 9.33 | 294.8429
COc1ccc2c(c1)[C@]1(C[C@H]1c1ccc3c(Nc4cc(N5CC(O)C5)ncn4)n[nH]c3c1)C(=O)N2 [Example 36, (1R,2S)-2-(3-{[6-(3-hydroxyazetidin-1-yl)pyrimidin-4-yl]amino}-1H-indazol-6-yl)-5′-methoxyspiro[cyclopropane-1,3′-indol]-2′(1′H)-one] | 218.2083 | 6.17 | 5.701
COc1ccc2c(c1)[C@]1(C[C@H]1c1ccc3c(Nc4cc(F)c(C(=O)N5CCOCC5)cc4OC)n[nH]c3c1)C(=O)N2 [Example 207, (1R,2S)-2-{3-[5-fluoro-2-methoxy-4-(morpholine-4-carbonyl)anilino]-1H-indazol-6-yl}-5′-methoxyspiro[cyclopropane-1,3′-indol]-2′(1′H)-one] | 497.3739 | 0.952 | 111.6597
COc1ccc2c(c1)[C@]1(C[C@H]1c1ccc3c(Nc4cc(C(C)O)cnc4OC)n[nH]c3c1)C(=O)N2 (mixture of isomers) [Example 271, (1R,2S)-2-(3-{[5-(1-hydroxyethyl)-2-methoxypyridin-3-yl]amino}-1H-indazol-6-yl)-5′-methoxyspiro[cyclopropane-1,3′-indol]-2′(1′H)-one] | 825.7199 | 6.04 | 492.8831
COc1ccc2c(c1)[C@]1(C[C@H]1c1ccc3c(Nc4cc(C(C)C)nc(C)n4)n[nH]c3c1)C(=O)N2 [Example 151, (1R,2S)-5′-methoxy-2-(3-{[2-methyl-6-(propan-2-yl)pyrimidin-4-yl]amino}-1H-indazol-6-yl)spiro[cyclopropane-1,3′-indol]-2′(1′H)-one] | 61.2440 | 9.74 | 96.3153
COc1ccc2c(c1)[C@]1(C[C@H]1c1ccc3c(Nc4nc(C)cnc4C)n[nH]c3c1)C(=O)N2.O=C(O)C(F)(F)F [Example 82, (1R,2S)-2-{3-[(3,6-dimethylpyrazin-2-yl)amino]-1H-indazol-6-yl}-5′-methoxyspiro[cyclopropane-1,3′-indol]-2′(1′H)-one] | 187.8524 | 6.21 | 38.55
COc1ccc2c(c1)[C@]1(C[C@H]1c1ccc3c(Nc4ncc(C(F)(F)F)cc4OC)n[nH]c3c1)C(=O)N2 [Example 158, (1R,2S)-5′-methoxy-2-(3-{[3-methoxy-5-(trifluoromethyl)pyridin-2-yl]amino}-1H-indazol-6-yl)spiro[cyclopropane-1,3′-indol]-2′(1′H)-one] | 704.9238 | 8.59 | 51.7286
COc1cnc(C)nc1Nc1n[nH]c2cc([C@@H]3C[C@]34C(=O)Nc3ccc(C)cc34)ccc12 [Example 127, (1S,2S)-2-{3-[(5-methoxy-2-methylpyrimidin-4-yl)amino]-1H-indazol-6-yl}-5′-methylspiro[cyclopropane-1,3′-indol]-2′(1′H)-one] | 22.77 | 2200 | 22.7686
COc1ccc2c(c1)[C@]1(C[C@H]1c1ccc3c(Nc4cc(N5CCCOCC5)ncn4)n[nH]c3c1)C(=O)N2 [Example 40, (1R,2S)-5′-methoxy-2-(3-{[6-(1,4-oxazepan-4-yl)pyrimidin-4-yl]amino}-1H-indazol-6-yl)spiro[cyclopropane-1,3′-indol]-2′(1′H)-one] | 67.06 | 15.2 | 2.783
COc1ccc2c(c1)[C@]1(C[C@H]1c1ccc3c(Nc4cn(C)nc4C)n[nH]c3c1)C(=O)N2 [Example 63, (1R,2S)-2-{3-[(1,3-dimethyl-1H-pyrazol-4-yl)amino]-1H-indazol-6-yl}-5′-methoxyspiro[cyclopropane-1,3′-indol]-2′(1′H)-one] | 56.84 | 72.2 | 16.69
COc1cnc(C)nc1Nc1n[nH]c2c(F)c([C@@H]3C[C@@]34C(=O)Nc3ccc(F)cc34)ccc12 [Example 142, (1R,2R)-5′-fluoro-2-{7-fluoro-3-[(5-methoxy-2-methylpyrimidin-4-yl)amino]-1H-indazol-6-yl}spiro[cyclopropane-1,3′-indol]-2′(1′H)-one] | 13.818 | 21.5 | 26.308
COc1ccc2c(c1)[C@@]1(C[C@@H]1c1ccc3c(Nc4ncncc4OC)n[nH]c3c1)C(=O)N2 [Example 8, (IS,2R)-5′-Methoxy-2-{3-[(5-methoxypyrimidin-4-yl)amino]-1H-indazol-6-yl}spiro[cyclopropane-1,3′-indol]-2′(1′H)-one] | 17.61 | 492 | 32.99
COc1ccc2c(c1)[C@]1(C[C@H]1c1ccc3c(Nc4cn(C)nc4OC)n[nH]c3c1)C(=O)N2 [Example 25, (1R,2S)-5′-methoxy-2-{3-[(3-methoxy-1-methyl-1H-pyrazol-4-yl)amino]-1H-indazol-6-yl}spiro[cyclopropane-13′-indol]-2′(1′H)-one] | 249.6489 | 34.2 | 28.1
COc1ccc2c(c1)[C@]1(C[C@H]1c1ccc3c(Nc4cc(N5CCS(=O)(=O)CC5)nc(C)n4)n[nH]c3c1)C(=O)N2 [Example 60, (1R,2S)-2-(3-((6-(1,1-dioxidothiomorpholino)-2-methylpyrimidin-4-yl)amino)-1H-indazol-6-yl)-5′-methoxyspiro[cyclopropane-1,3′-indolin]-2′-one] | 69.69 | 7.36 | 7.855
